Values after ≈ are worked out from the molar mass of the structure shown. Where two headings read alike, the source gives them in different places. Bridge positions count the residues as written; N and C are the ends. Peptide text beside a SMILES is read from it.
What was measured:
[1] = system: Colletotrichum gloeosporioides
[2] = system: Cercospora sojina
[3] = system: Alternaria alternata
[4] = system: Botrytis cinerea
[5] = system: Fusarium graminearum
[6] = system: B. cinerea; experiment: Drop inoculation assay on detached Nicotiana benthamiana leaves (semi-in planta); format: in vivo, Botrytis cinerea; conditions: 48 h; for Reduction of gray mold disease symptoms: detached N. benthamiana leaves, no single concentration stated
[7] = unit from method, none in Table 19

Row | Structure (SMILES) | MIC, Colletotrichum gloeosporioides [1] | MIC, Cercospora sojina [2] | MIC, Alternaria alternata [3] | MIC (μM) Botrytis cinerea [4] | MIC (μM) Fusarium graminearum [5] | MIC (μM) (SFM + 2 mM CaCl2) [4] | MIC (μM) (SFM + 100 mM KCl) [4] | MIC (μM) (SFM + 100 mM NaCl) [4] | MIC (μM) SFM [4] | Reduction of gray mold disease symptoms [6] | MIC, Colletotrichum gloeosporioides [1, 7] | MIC, Cercospora sojina [2, 7] | MIC, Alternaria alternata [3, 7] | Gray mold symptoms, drop inoculation assay ([6]; peptide at 1.5 μM and 3 μM) | Gray mold symptoms, drop inoculation assay ([6]; peptide at 6 μM) | Gray mold symptoms, drop inoculation assay ([6]; peptide at 3 μM and 6 μM)
1 | C[C@@H](O)[C@H](NC(=O)[C@H](CS)NC(=O)[C@H](Cc1ccccc1)NC(=O)[C@H](CS)NC(=O)[C@H](CCCNC(=N)N)NC(=O)[C@H](CCCNC(=N)N)NC(=O)[C@H](CCCNC(=N)N)NC(=O)[C@H](Cc1ccccc1)NC(=O)CNC(=O)[C@H](CCCNC(=N)N)NC(=O)[C@H](CS)NC(=O)[C@H](CCCNC(=N)N)NC(=O)CN)C(=O)N[C@H](C(=O)N[C@@H](Cc1c[nH]cn1)C(=O)N[C@@H](CS)C(N)=O)[C@@H](C)O [GMA4AC, reference compound] (H-GRCRGFRRRCFCTTHC-NH2) | >12 µM | >12 µM | >12 µM | – | – | – | – | – | – | – | – | – | – | – | – | –
2 | C[C@@H](O)[C@H](NC(=O)[C@H](CS)NC(=O)[C@H](Cc1ccccc1)NC(=O)[C@H](CS)NC(=O)[C@H](CCCNC(=N)N)NC(=O)[C@H](CCCNC(=N)N)NC(=O)[C@H](CCCNC(=N)N)NC(=O)[C@H](Cc1ccccc1)NC(=O)CNC(=O)[C@H](CCCNC(=N)N)NC(=O)[C@H](CS)NC(=O)[C@H](CCCNC(=N)N)NC(=O)CN)C(=O)N[C@H](C(=O)N[C@@H](Cc1c[nH]cn1)C(=O)N[C@@H](CS)C(=O)O)[C@@H](C)O [GMA4AC, reference compound] (H-GRCRGFRRRCFCTTHC-OH; N-terminus assumed) | – | – | – | 6 µM (≈ 11.8 µg/mL) | 6 µM (≈ 11.8 µg/mL) | – | – | – | – | – | – | – | – | – | – | –
3 | CC[C@H](C)[C@@H]1NC(=O)[C@H](CCCNC(=N)N)NC(=O)[C@H]([C@@H](C)O)NC(=O)[C@H](Cc2ccccc2)NC(=O)[C@H](Cc2c[nH]c3ccccc23)NC(=O)[C@H](Cc2ccccc2)NC(=O)[C@H](CCCNC(=N)N)NC(=O)[C@H](CCCNC(=N)N)NC(=O)[C@H](CC(C)C)NC(=O)[C@H](Cc2ccccc2)NC(=O)CNC(=O)[C@H](CCCCN)NC(=O)[C@@H](NC(=O)[C@H](CCCNC(=N)N)NC(=O)CNC(=O)CN)CSSC[C@@H](C(N)=O)NC1=O [GMA4C_V9] (H-GGRCKGFLRRFWFTRIC-NH2; disulfide 4-17; N-terminus assumed) | – | – | – | – | – | 12 µM | 6 to 12 µM | 3 µM | 3 µM (≈ 6.3 µg/mL) | effective in reducing gray mold disease symptoms | >12 µM | 6 µM (≈ 12.6 µg/mL) | >12 µM | – | – | –
4 | CC[C@H](C)[C@@H]1NC(=O)[C@H](CCCNC(=N)N)NC(=O)[C@H]([C@@H](C)O)NC(=O)[C@H](Cc2c[nH]c3ccccc23)NC(=O)[C@H](Cc2ccc(O)cc2)NC(=O)[C@H](Cc2c[nH]c3ccccc23)NC(=O)[C@H](CCCNC(=N)N)NC(=O)[C@H](CCCNC(=N)N)NC(=O)[C@H](CCCNC(=N)N)NC(=O)[C@H](Cc2ccccc2)NC(=O)CNC(=O)[C@H](CCCCN)NC(=O)[C@@H](NC(=O)[C@H](CCCNC(=N)N)NC(=O)CNC(=O)CN)CSSC[C@@H](C(N)=O)NC1=O [GMA4C_V10] (H-GGRCKGFRRRWYWTRIC-NH2; disulfide 4-17; N-terminus assumed) | – | – | – | – | – | 3 µM | 3 to 6 µM | 3 µM | 3 µM (≈ 6.6 µg/mL) | effective in reducing gray mold disease symptoms | >12 µM | 6 µM (≈ 13.2 µg/mL) | >12 µM | more effective in reducing the symptoms of gray mold than GMA4C_V9 | completely abrogates gray mold symptoms | –
5 | C[C@H](NC(=O)CN)C(=O)N[C@H]1CSSC[C@@H](C(N)=O)NC(=O)[C@H](CCCCN)NC(=O)[C@H](CCCCN)NC(=O)[C@H](Cc2ccc(O)cc2)NC(=O)[C@H](Cc2c[nH]c3ccccc23)NC(=O)[C@H](Cc2ccccc2)NC(=O)[C@H](Cc2c[nH]c3ccccc23)NC(=O)[C@H](C)NC(=O)[C@H](Cc2ccccc2)NC(=O)CNC(=O)[C@H](Cc2ccccc2)NC(=O)CNC(=O)[C@H](CCC(N)=O)NC(=O)[C@H](CCCNC(=N)N)NC(=O)[C@H](Cc2c[nH]cn2)NC1=O [GMA5CA_V3] (H-GACHRQGFGFAWFWYKKC-NH2; disulfide 3-18; N-terminus assumed) | – | – | – | – | – | >12 µM | >12 µM | >12 µM | 3 µM (≈ 6.57 µg/mL) | – | >12 µM | 6 µM (≈ 13.1 µg/mL) | 3 µM (≈ 6.57 µg/mL) | – | – | –
6 | C[C@H](NC(=O)CN)C(=O)N[C@H]1CSSC[C@@H](C(N)=O)NC(=O)[C@H](CCCCN)NC(=O)[C@H](CCCCN)NC(=O)[C@H](Cc2ccc(O)cc2)NC(=O)[C@H](Cc2ccccc2)NC(=O)[C@H](Cc2ccccc2)NC(=O)[C@H](Cc2ccccc2)NC(=O)[C@H](C)NC(=O)[C@H](Cc2ccccc2)NC(=O)CNC(=O)[C@H](Cc2ccccc2)NC(=O)CNC(=O)[C@H](CCC(N)=O)NC(=O)[C@H](CCCNC(=N)N)NC(=O)[C@H](Cc2c[nH]cn2)NC1=O [GMA5CA_V4] (H-GACHRQGFGFAFFFYKKC-NH2; disulfide 3-18; N-terminus assumed) | – | – | – | – | – | >12 µM | >12 µM | >12 µM | 3 µM (≈ 6.33 µg/mL) | – | >12 µM | 6 µM (≈ 12.7 µg/mL) | 3 µM (≈ 6.33 µg/mL) | – | – | –
7 | CC(C)C[C@@H]1NC(=O)[C@@H](NC(=O)[C@H](C)NC(=O)CN)CSSC[C@@H](C(=O)N[C@@H](Cc2ccc(O)cc2)C(N)=O)NC(=O)[C@H](Cc2c[nH]cn2)NC(=O)[C@H](CCCNC(=N)N)NC(=O)[C@H](Cc2ccc(O)cc2)NC(=O)[C@H](Cc2ccc(O)cc2)NC(=O)[C@H](Cc2c[nH]c3ccccc23)NC(=O)[C@H](Cc2ccccc2)NC(=O)[C@H](Cc2ccccc2)NC(=O)CNC(=O)[C@H](Cc2ccc(O)cc2)NC(=O)[C@H](Cc2c[nH]cn2)NC(=O)[C@H](CCCCN)NC(=O)[C@H](CO)NC(=O)[C@H](Cc2c[nH]cn2)NC(=O)[C@H](CCCNC(=N)N)NC(=O)[C@H](CC(N)=O)NC(=O)[C@H](CCCCN)NC1=O [GMAOe1C_V4] (H-GACLKNRHSKHYGFFWYYRHCY-NH2; disulfide 3-21; N-terminus assumed) | – | – | – | – | – | 6 to 12 µM | 6 to 12 µM | 6 µM | 1.5 µM (≈ 4.25 µg/mL) | – | – | – | – | – | – | completely abrogated gray mold symptoms
8 | CC(C)C[C@H](NC(=O)[C@H](CS)NC(=O)[C@H](C)NC(=O)CN)C(=O)N[C@@H](CCCCN)C(=O)N[C@@H](CC(N)=O)C(=O)N[C@@H](CCCNC(=N)N)C(=O)N[C@@H](Cc1c[nH]cn1)C(=O)N[C@@H](CO)C(=O)N[C@@H](CCCCN)C(=O)N[C@@H](Cc1c[nH]cn1)C(=O)N[C@@H](Cc1ccc(O)cc1)C(=O)NCC(=O)N[C@@H](CS)C(=O)N[C@@H](Cc1ccc(O)cc1)C(=O)N[C@@H](CS)C(=O)N[C@@H](Cc1ccc(O)cc1)C(=O)N[C@@H](Cc1ccc(O)cc1)C(=O)N[C@@H](CCCNC(=N)N)C(=O)N[C@@H](Cc1c[nH]cn1)C(=O)N[C@@H](CS)C(=O)N[C@@H](Cc1ccc(O)cc1)C(N)=O [GMAOe1C_WT, reference compound] (H-GACLKNRHSKHYGCYCYYRHCY-NH2; N-terminus assumed) | – | – | – | – | – | >12 µM | 6 to 12 µM | 3 to 6 µM | 3 µM (≈ 8.18 µg/mL) | – | – | – | – | – | – | only effective at 6 μM

— patent US20220408731A1, “MODIFIED ANTIMICROBIAL PEPTIDES” (priority 2021, published 2022)
